Read-outs that look alike come from different tables or passages of the source.
What was measured:
[1] = human, in vivo
[2] = In vitro dissolution kinetics in distilled water and intestinal juice; type: physicochemical; conditions: eau distillée and suc intestinal
[3] = Dissolution kinetics of dihydropyridines (figure 7); type: physicochemical; conditions: Nifédipine à l'état brut, oxodipine à l'état de coprécipité, without PROSOBEL
Description: On peut en conclure que le PROSOBEL, de façon très inattendue pour l'homme de métier, ralentit la dissolution en milieu aqueux, et permet l'obtention de formes pharmaceutiques originales et nouvelles, de dihydropyridines à biodisponibilité contrôlée.

[4] = human, in vivo, 0 min
[5] = Plasma concentrations after single oral administration of oxodipine forms to 6 healthy subjects; conditions: human, 20 mg
[6] = Solubility in water (stated in words); conditions: result in words

% DE DOSE ENTRES DANS L'ORGANISME APRES ABSORPTION ET PASSAGE HEPATIQUE ([1]; 10.2 min): 2,5% | % DE DOSE ENTRES DANS L'ORGANISME APRES ABSORPTION ET PASSAGE HEPATIQUE ([1]; 19.8 min): 1,6% | % DE DOSE ENTRES DANS L'ORGANISME APRES ABSORPTION ET PASSAGE HEPATIQUE ([1]; 30 min): 4,5% | % DE DOSE ENTRES DANS L'ORGANISME APRES ABSORPTION ET PASSAGE HEPATIQUE ([1]; 39.6 min): 6,6% | % DE DOSE ENTRES DANS L'ORGANISME APRES ABSORPTION ET PASSAGE HEPATIQUE ([1]; 49.8 min): 7,0% | % DE DOSE ENTRES DANS L'ORGANISME APRES ABSORPTION ET PASSAGE HEPATIQUE ([1]; 60 min): 9,3% | % DE DOSE ENTRES DANS L'ORGANISME APRES ABSORPTION ET PASSAGE HEPATIQUE ([1]; 75 min): 11% | % DE DOSE ENTRES DANS L'ORGANISME APRES ABSORPTION ET PASSAGE HEPATIQUE ([1]; 90 min): 11,4% | % DE DOSE ENTRES DANS L'ORGANISME APRES ABSORPTION ET PASSAGE HEPATIQUE ([1]; 120 min): 14,0% | % DE DOSE ENTRES DANS L'ORGANISME APRES ABSORPTION ET PASSAGE HEPATIQUE ([1]; 180 min): 16,6% | % DE DOSE ENTRES DANS L'ORGANISME APRES ABSORPTION ET PASSAGE HEPATIQUE ([1]; 240 min): 18% | % DE DOSE ENTRES DANS L'ORGANISME APRES ABSORPTION ET PASSAGE HEPATIQUE ([1]; 360 min): 19,8% | % DE DOSE ENTRES DANS L'ORGANISME APRES ABSORPTION ET PASSAGE HEPATIQUE ([1]; 480 min): 21,2% | % DE DOSE ENTRES DANS L'ORGANISME APRES ABSORPTION ET PASSAGE HEPATIQUE ([1]; 600 min): 22,6% | % DE DOSE ENTRES DANS L'ORGANISME APRES ABSORPTION ET PASSAGE HEPATIQUE ([1]; 720 min): 23,8% | biodisponibilité ([1]; 720 min): 31% | BIODIOPONIBILITE RELATIVE PAR RAPPORT A LA SOLUTION ([1]; po): 31% | cinétique de dissolution in vitro [2]: lente et limitée | cinétiques de dissolution [3]: très rapides | Concentration [4]: 0,0 ng/ml | concentration at 0.17 h [5]: 1.2 ng/mL | concentration at 0.33 h [5]: 1.4 ng/mL | concentration at 0.5 h [5]: 2.7 ng/mL | concentration at 0.66 h [5]: 4.2 ng/mL | concentration at 0.83 h [5]: 5 ng/mL | concentration at 1 h [5]: 6 ng/mL | concentration at 1.25 h [5]: 6.8 ng/mL | concentration at 1.5 h [5]: 6.5 ng/mL | concentration at 2 h [5]: 6.2 ng/mL | concentration at 3 h [5]: 5.1 ng/mL | concentration at 4 h [5]: 4 ng/mL | concentration at 6 h [5]: 2.4 ng/mL | concentration at 8 h [5]: 1.6 ng/mL | concentration at 10 h [5]: 1.4 ng/mL | concentration at 12 h [5]: 1.2 ng/mL | concentration at 14 h [5]: 1 ng/mL | concentration at 24 h [5]: 1.2 ng/mL | solubilité dans l'eau [6]: faible
SMILES: CCOC(=O)C1=C(C)NC(C)=C(C(=O)OC)C1c1cccc2c1OCO2 (centres unmarked) [Poudre 20mg, 1,4-dihydro 4-(2′,3′-méthylènedioxyphényl) 3,5-pyridine dicarboxylatede méthyle et d'éthyle]

From patent publication EP0412877A1, “Oral galenic form to improve bioavailability” (priority 1989, dated 1991)
